{"source": "patent US20150359798A1", "about": "“PIPERAZINYL DERIVATIVE REDUCES HIGH-FAT DIET-INDUCED ACCUMULATION OF FAT IN THE LIVERS, […]” (priority 2011, published 2015)", "key": {"[1]": {"tested_on": "ATGL", "assay": "IHC staining of ATGL in steatohepatitis liver", "assay_type": "in vivo, mice", "conditions": "more prominent in protection than treatment groups", "experimental": "(§1) In the 14-week experiment, mice were fed a HFD from week 1 to week 14. During the 3 month experiments, KMUP-1 HCl (2.5 mg) was added to 200 ml tap water and) and drink for 14 weeks or for the last 6 weeks on mice or obese mice fed HFD, separately. 5 mice had free access to drinking water from week 1 to week 14 (protective group) or from week 8 to week 14 (treatment group). Tap water was used to normalize mineral nutrition (Scheme A).\n(§2) For IHC of MMP-9/TNFα, HSL/p-HSL/ATGL and eNOS/IL-10, antigen retrieval of de-paraffinated sections was performed in Dako target retrieval solution, pH 9.0, in a vegetable steamer followed by the quenching of endogenous peroxidase activity with 3.0% H2O2 in methanol. Sections were then incubated with specific primary antibodies overnight at 4° C. in a humidified chamber. The antibodies used included rabbit polyclonal anti-eNOS (1:50 dilution) (Abcam, Cambridge, UK) or rabbit monoclonal anti-cleaved caspase-3 (1:50 dilution) (Cell Signaling, USA). The sections were then examined using a DAKO REAL EnVision™ Detection System kit (DAKO, Carpinteria, Calif.) and counterstained with hematoxylin. Images were obtained through a Nikon Eclipse TE200-S microscope."}, "[2]": {"tested_on": "HMG CoA reductase", "assay": "HMG CoA reductase expression in HepG2 cells (Western blotting)", "assay_type": "cell-based", "experimental": "The HepG2 hepatoma cell line was purchased from the American Type Culture Collection (ATCC; Manassas, Va., U.S.A.). Cells were cultured in DMEM. The culture media was supplemented with 5% heat-Inactivated FBS, penicillin (100 U/mL) and streptomycin (100 μg/mL). Cells were grown in a humidified atmosphere containing 5% CO2 at 37° C., in which the oxygen tension in the incubator was held at 140 mmHg (20% O2, v/v; normoxic conditions).\n(§3) HepG2 cells were treated with various concentrations of drugs for 24 hours. Reactions were terminated by washing twice with cold PBS, and the cells were then harvested, Proteins in the whole-cell lysate were homogenized in an ice-cold lysis buffer and a protease inhibitor (Sigma-Aldrich, St. Louis, Mo., U.S.A.). The homogenate was centrifuged at 90, 000 g for 15 minutes at 4° C., and supernatant was recovered as the total cellular protein. Cytosolic and membrane fractions of HepG2 cells were prepared using a. CNM (Cytosol Nuclear Membrane) compartment protein extraction kit (BioChain Institute Inc., Hayward, Calif., U.S.A.) according to the manufacturer's instructions. All of the fractionated protein solutions were stored at −80° C. until analysis. To measure the expression levels of proteins by drugs, the total cell protein was extracted after incubation with treatments for 24 hours and then Western blotting analysis was performed as described previously."}, "[3]": {"tested_on": "PKG", "assay": "PKG expression and immunoreactivity in HepG2 cells", "assay_type": "cell-based"}, "[4]": {"target": "T1, Human recombinant HMG CoA reductase (Homo sapiens, UniProt P04035)", "T1 construct": "purchased Sigma-Aldrich (printed 'Sigma-Adrich') H7039; host or cells: E. coli", "T1 sequence (P04035 426-888 limits assumed)": "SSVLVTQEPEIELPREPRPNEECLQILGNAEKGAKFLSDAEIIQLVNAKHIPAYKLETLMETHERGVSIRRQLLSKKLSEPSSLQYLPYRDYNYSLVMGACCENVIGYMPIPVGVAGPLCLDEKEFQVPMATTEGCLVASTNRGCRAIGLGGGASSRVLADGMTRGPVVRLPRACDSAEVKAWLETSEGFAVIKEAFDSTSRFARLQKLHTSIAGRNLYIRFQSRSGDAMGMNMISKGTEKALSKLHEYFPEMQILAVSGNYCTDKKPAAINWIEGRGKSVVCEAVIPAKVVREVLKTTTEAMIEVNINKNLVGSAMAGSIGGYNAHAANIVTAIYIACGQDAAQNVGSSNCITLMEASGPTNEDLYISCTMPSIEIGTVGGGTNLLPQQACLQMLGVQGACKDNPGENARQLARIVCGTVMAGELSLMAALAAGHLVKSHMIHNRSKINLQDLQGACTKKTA", "assay": "HMG CoA reductase activity, [14C]mevalonate formation", "assay_type": "biochemical", "conditions": "10 μM", "experimental": "Human recombinant HMG CoA reductase expressed in E. coli (H7039, Sigma-Adrich, Mo, U.S.A.) was used. Human recombinant HMG-CoA reductase, examined by SDS-PAGE to be ≧90% in purity, 2-8 units/mg protein in activity and ˜76 kDa in molecular weight (H7039, Sigma-Adrich, St. Louis, Mo. U.S.A.), was used for determining the formation of [^14C]mevalonate. […] The reaction was initiated by the addition of 2.5 μM [^14C]HMG-CoA for another 20 minutes incubation period and terminated by further addition of 1 N HCl. An aliquot was removed by column and counted to determine the amount of [^14C]mevalonate formed (Ricera® Co. Ltd., Taipei, Taiwan)."}, "[5]": {"tested_on": "PPAR-γ", "assay": "Table 3 PPAR-γ (% of control)", "assay_type": "cell-based", "conditions": "control group = 100 (%)"}, "[6]": {"tested_on": "PKG", "assay": "Hepatic PKG expression (14-week experiment)", "assay_type": "in vivo, mice", "conditions": "drinking KMUP-1; protection and treatment groups"}, "[7]": {"tested_on": "eNOS", "assay": "eNOS expression in HepG2 cells", "assay_type": "cell-based", "experimental": "as §3"}, "[8]": {"tested_on": "HSL", "assay": "IHC staining of HSL in epididymal fat pads", "assay_type": "in vivo, mice", "conditions": "protection, 2.5 mg/kg/day", "experimental": "as §2"}, "[9]": {"tested_on": "ABCA1", "assay": "ABCA1 expression in liver of HFD mice (8 weeks)", "assay_type": "in vivo", "conditions": "animals treated with HFD"}, "[10]": {"tested_on": "eNOS", "assay": "Table 3 eNOS (% of control)", "assay_type": "cell-based", "conditions": "control group = 100 (%)"}, "[11]": {"tested_on": "HSL", "assay": "HSL immunoreactivity in HepG2 cells", "assay_type": "cell-based"}, "[12]": {"tested_on": "ABCA1", "assay": "ABCA1 expression in HepG2 cells", "assay_type": "cell-based", "experimental": "as §3"}, "[13]": {"tested_on": "LXRα", "assay": "LXRα expression in HepG2 cells", "assay_type": "cell-based", "conditions": "HepG2, 10^−9-10^−5 M", "experimental": "HepG2 cells were treated with various concentrations of drugs for 24 hours. […] All of the fractionated protein solutions were stored at −80° C. until analysis. To measure the expression levels of proteins by drugs, the total cell protein was extracted after incubation with treatments for 24 hours and then Western blotting analysis was performed as described previously."}, "[14]": {"tested_on": "HSL", "assay": "IHC staining of HSL in steatohepatitis liver", "assay_type": "in vivo, mice", "conditions": "after treatment or protection", "experimental": "as §1, §2"}, "[15]": {"tested_on": "epididymal fat pads", "assay": "H&E staining, weight and cell diameter of epididymal fat pads", "assay_type": "in vivo, mice", "experimental": "as §1\nMice liver and epididymal fat pads were cut and soaked in formalin, dehydrated through graded alcohols and embedded in paraffin. Specimens of liver tissues and epididymal fat pads fixed with formalin (4%) were embedded in paraffin for one hour at 4° C., cut into […] sections, and subjected to H&E staining before examination by light microscope. In heart tissues, the 4-μm-thick paraffin sections were cut from paraffin-embedded tissue blocks and de-paraffinized by immersion in xylene and rehydrated. The slices were then dyed with H&E. After gently rinsing with water, each slide was dehydrated through graded alcohols and finally soaked in xylene twice."}, "[16]": {"tested_on": "PPARγ", "assay": "PPARγ expression in HepG2 cells", "assay_type": "cell-based", "experimental": "as §3"}, "[17]": {"conditions": "HepG2, KMUP-1 10^−9-10^−5 M with FPP or GGPP"}, "[18]": {"conditions": "HepG2, simvastatin, KMUP-1, Y27632 10^−5M, C3 exoenzyme"}}, "data": [{"smiles": "Cn1c(=O)c2c(ncn2CCN2CCN(c3ccccc3Cl)CC2)n(C)c1=O", "note": "[KMUP-1, 7-[2-[4-(2-chlorophenyl)piperazinyl]ethyl]-1,3-dimethyl xanthine]", "values": [{"measurement": "ATGL lipolysis (IHC, liver)", "setting": "[1]", "value": "induced"}, {"measurement": "mevalonate (100 μM)-inhibited HMG CoA reductase expression", "setting": "[2]; HepG2, 10^−5M", "value": "prevented"}, {"measurement": "HMG CoA reductase expression", "setting": "[2]; HepG2, serum/vehicle-containing medium, 10^−9-10^−5M, 24 hours", "value": "concentration-dependently increased"}, {"measurement": "expression of PKG", "setting": "[3]; 10, 20, 40 µM, in the presence of LDL (500 μg/mL)", "value": "increased"}, {"measurement": "PKG immunoreactivity", "setting": "[3]; data not shown", "value": "not significantly affected"}, {"measurement": "[14C]mevalonate formation", "setting": "[4]", "value": "could not reduce"}, {"measurement": "PPAR-γ", "setting": "[5]; 0.1 μM", "value": "123.5 ± 17.3", "unit": "%"}, {"measurement": "PPAR-γ", "setting": "[5]; 1.0 μM", "value": "135.6 ± 14.5", "unit": "%"}, {"measurement": "PPAR-γ", "setting": "[5]; 10 μM", "value": "142.6 ± 15.4", "unit": "%"}, {"measurement": "hepatic PKG expression", "setting": "[6]", "value": "promote"}, {"measurement": "expression of eNOS", "setting": "[7]", "value": "concentration-dependently increased"}, {"measurement": "IHC staining of HSL in epididymal fat pads", "setting": "[8]", "value": "increased"}, {"measurement": "ABCA1 in liver", "setting": "[9]", "value": "activated"}, {"measurement": "eNOS", "setting": "[10]; 0.1 μM", "value": "121.6 ± 16.5", "unit": "%"}, {"measurement": "eNOS", "setting": "[10]; 1.0 μM", "value": "132.7 ± 15.2", "unit": "%"}, {"measurement": "eNOS", "setting": "[10]; 10 μM", "value": "138.9 ± 15.2", "unit": "%"}, {"measurement": "HSL immunoreactivity (green fluorescence)", "setting": "[11]", "value": "increased"}, {"measurement": "expression of ABCA1", "setting": "[12]; HepG2, 10^−9-10^−5 M", "value": "increased"}, {"measurement": "FPP- or GGPP-suppressed expression of ABCA1", "setting": "[12]; [17]", "value": "reversed"}, {"measurement": "ABCA1 expression (FIG. 24D)", "setting": "[12]; [18]", "value": "increased"}, {"measurement": "LXRα expression", "setting": "[13]", "value": "concentration-dependently increased"}, {"measurement": "HSL (IHC, liver)", "setting": "[14]", "value": "partly increased"}, {"measurement": "epididymal fat pad weight", "setting": "[15]; 2.5 mg/kg/day for 14 weeks", "value": "significantly reduced"}, {"measurement": "fat cell diameter", "setting": "[15]; 2.5 mg/kg/day for 14 weeks", "value": "significantly reduced"}, {"measurement": "HFD-induced hypertrophy/hyperplasia of epididymal fat pads (H&E)", "setting": "[15]; protection, 2.5 mg/kg", "value": "inhibited"}, {"measurement": "increase of PPARγ", "setting": "[16]; HepG2", "value": "2-3 fold"}, {"measurement": "expression of PPARγ", "setting": "[16]; HepG2, 10^−9-10^−5 M", "value": "increased"}, {"measurement": "FPP- or GGPP-suppressed expression of PPARγ", "setting": "[16]; [17]", "value": "reversed"}, {"measurement": "PPARγ expression (FIG. 24C)", "setting": "[16]; [18]", "value": "increased"}]}]}
